Measurements: patent US9132131B2, “Use of adenosine A3 receptor agonists for treatment of neuropathic pain” (Saint Louis University, priority 2011, dated 2015)

Assays:
[1] = system: paclitaxel-induced neuropathic pain; assay: Paclitaxel-induced neuropathic pain (mechano-allodynia, mechano-hyperalgesia); assay type: in vivo, rats
[2] = system: bortezomib-induced neuropathic pain; assay: Bortezomib-induced neuropathic pain (mechano-allodynia, mechano-hyperalgesia); assay type: in vivo, rats
Procedure: Bortezomib or vehicle (5% Tween 80, 5% ethanol) was injected i.p. in rats on five consecutive days (D0-D4; 0.2 mg/kg) for a final cumulative dose of 1 mg/kg (G. J. Bennett and W. H. Xiao, personal communication). Test substances or their vehicle were given i.p. (0.2 ml) 30 min before the chemotherapeutic agent or its vehicle on D0 (baseline) and then daily until D15 or D17. Behavioral responses (mechano-allodynia and mechano-hyperalgesia) were measured on D0 prior to the first i.p. injection of the chemotherapeutic agent and subsequently at various time points. If testing coincided with a day when rats received test substance, behavioral measurements were taken always before the injection of the test substance. Chemotherapeutic treatments result in bilateral allodynia and hyperalgesia without differences in left and right paw withdrawal threshold (PWT, grams) in any group at any time point, thus values from both paws were averaged.
Behavioral testing. […] The plantar aspect of hindpaws were probed three times with calibrated von Frey filaments (Stoelting, mice: 0.07-2.00 grams; rats: 0.407-26 grams) according to the “up-and-down” method. […] Mechanical threshold was assessed three times at each time point to yield a mean value, reported as PWT (grams). […] Mechano-hyperalgesia was assessed in rats by the Randall and Sellitto paw pressure test using an analgesiometer (Ugo Basile). […]

[3] = system: motor function (Rotarod latency); assay: Rotarod test; assay type: in vivo, mice; settings: 0.5 μmol/kg i.p., 30, 60, 120 minutes
Procedure: Rotarod test in mice: Mice were trained before experimentation for their ability to remain for 60 seconds on a revolving Rotarod for mice apparatus (Ugo Basile; accelerating units increasing from 5 to 40 rpm in 60 sec). Mice were injected i.p. with IB-MECA, MRS1898 (0.5 μmol/kg) or vehicle (0.1% DMSO in saline) and then examined at 30, 60 and 120 minutes after administration for motor impairments on the Rotarod. The latency time to fall off the Rotarod was determined with a cut-off time of 120 seconds.

Q: For CNC(=O)[C@H]1O[C@@H](n2cnc3c(NCc4cccc(I)c4)ncnc32)[C@H](O)[C@@H]1O [IB-MECA, N^6-(3-iodobenzyl)-adenosine-5′-N-methyluronamide], which “effect on paclitaxel-induced neuropathic pain” value ([1]; 0.02-0.2 μmol/kg/d i.p. D0-D15) is on record?
A: The value was “dose-dependently attenuated”.

Q: What about the “effect on PWT when administered alone (vehicle groups)” value ([1]; IB-MECA 0.2 μmol/kg/d in any of the chemotherapy models, MRS1523 5 μmol/kg/d) of the same compound?
A: Its value is “did not affect PWT”.

Q: And the “neuropathic pain after discontinuation of treatment on D15” value ([1]; paclitaxel model, followed through D25)?
A: Its value is “did not emerge through D25”.

Q: And the “D16 ED50, prevention of paclitaxel-induced mechano-allodynia” value ([1]; rats, daily i.p. D0-D15)?
A: Its value is 0.02 µmol/kg/day.

Q: What about the “D16 ED50, prevention of paclitaxel-induced mechano-hyperalgesia” value ([1]; rats, daily i.p. D0-D15) of the same compound?
A: The value was 0.03 µmol/kg/day.

Q: What about the “effect on development of bortezomib-induced mechano-allodynia and mechano-hyperalgesia” value ([2]; 0.2 μmol/kg/d (not shown)) of the same compound?
A: The value was “blocked the development”.

Q: What about the “neuropathic pain after treatment was discontinued on D17” value ([2]; bortezomib model) of the same compound?
A: The value was “did not emerge”.

Q: And the Rotarod deficits [3]?
A: Its Rotarod deficits is “did not induce Rotarod deficits”.
